# Experiments:
# IDO1 [1] = biological target: T1, IDO1 (Homo sapiens (Human), UniProt P14902); assay: IDO1 Cellular Assay in Frozen HEK293 Cells Transiently Transfected with Human IDO1; type: cell-based; details: HEK293 cells transiently transfected with human IDO1; read-out: IDO1 HEK293 Cell Assay, IC50
# IDO1 [2] = biological target: T1, IDO1; assay: IDO1 Enzyme Assay; details: HIS-tagged recombinant IDO1, 40 nM
# IDO1 [3] = biological target: T1, IDO1; assay: IDO1 Cellular Assay in Hela Cells Stimulated with IFNγ; type: cell-based; details: Hela cells stimulated with IFNγ 100 ng/mL; read-out: IDO1 HELA Cell Assay, IC50
# [4] = read-out: IDO1 Enzyme Assay, IC50
# T1 sequence (P14902 whole entry): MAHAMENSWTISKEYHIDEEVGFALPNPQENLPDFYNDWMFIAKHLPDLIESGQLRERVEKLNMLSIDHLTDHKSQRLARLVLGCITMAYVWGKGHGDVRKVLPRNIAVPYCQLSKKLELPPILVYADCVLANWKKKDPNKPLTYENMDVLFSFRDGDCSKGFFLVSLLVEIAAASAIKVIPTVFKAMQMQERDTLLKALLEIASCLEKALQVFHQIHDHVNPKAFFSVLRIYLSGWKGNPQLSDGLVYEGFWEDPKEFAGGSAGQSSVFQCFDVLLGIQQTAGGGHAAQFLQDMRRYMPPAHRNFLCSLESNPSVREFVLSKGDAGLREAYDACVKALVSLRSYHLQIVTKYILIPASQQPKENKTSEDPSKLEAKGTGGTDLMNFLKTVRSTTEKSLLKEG
Compound,IC50 (IDO1 [1]),IC50 (IDO1 [2]; [4]),IC50 (IDO1 [3]),"IC50 (IDO1 [2]; IDO1 Enzyme Assay, IC50, nM)"
"CCCCNC(=O)NCCSc1nonc1C(=NO)Nc1ccc(F)c(Br)c1 [Example 127, N-(3-bromo-4-fluorophenyl)-4-({2-[(bulylcarbamoyl)amino]ethyl}sulfanyl)-N′-hydroxy-1,2,5-oxadiazole-3-carboximidamide]",115 nM,33.5 nM,219 nM,
"O=C(NCCSc1nonc1C(=NO)Nc1ccc(F)c(Br)c1)NC1CCCC1 [Example 129, N-(3-bromo-4-fluorophenyI)-4-({2-[(cyclopentylcarbamoyl)amino]ethyl}sulfanyl)-N′-hydroxy-1,2,5-oxadiazole-3-carboximidamide]",258 nM,35.3 nM,702 nM,
"COCCNC(=O)NCCSc1nonc1C(=NO)Nc1ccc(F)c(Br)c1 [Example 132, N-(3-bromo-4-fluorophenyl)-N′-hydroxy-4-[(2-{[(2-methoxyethyl)carbamoyl]amino}ethyl)sulfanyl]-1,2,5-oxadiazole-3-carboximidamide]",33.1 nM,,31.7 nM,32.1 nM
"Cn1c(CSc2nonc2/C(=N/O)Nc2ccc(F)c(Cl)c2)n[nH]c1=O [Example 133, N-(3-chloro-4-fluorophenyl)-N′-hydroxy-4-{[(4-methyl-5-oxo-4,5-dihydro-1H-1,2,4-triazol-3-yl)methyl]sulfanyl}-1,2,5-oxadiazole-3-carboximidamide]",226 nM,71.5 nM,235 nM,
"CC(O)CNC(=O)CSc1nonc1C(=NO)Nc1ccc(F)c(Br)c1 (stereo not drawn) [Example 138, 2-({4-[N-(3-bromo-4-fluorophenyl)-N′-hydroxycarbamimidoyl]-1,2,5-oxadiazol-3-yl}sulfanyl)-N-(2-hydroxypropyl)acetamide]",60 nM,,54.7 nM,38.7 nM
"O=c1[nH]nc(CCSc2nonc2/C(=N/O)Nc2ccc(F)c(Br)c2)o1 [Example 141, N-(3-bromo-4-fluorophenyl)-N′-hydroxy-4-{[2-(5-oxo-4,5-dihydro-1,3,4-oxadiazol-2-yl)ethyl]sulfanyl}-1,2,5-oxadiazole-3-carboximidamide]",131 nM,72.2 nM,112 nM,
"CC(=O)NCCSc1nonc1/C(=N/O)Nc1ccc(F)c(C(F)F)c1 [Example 142, N-{2-[(4-{N-[3-(difluoromethyl)-4-fluorophenyl]-N′-hydroxycarbamimidoyl}-1,2,5-oxadiazol-3-yl)sulfanyl]ethyl}acetamide]",46.9 nM,54 nM,57.2 nM,
"C[C@@H](O)[C@@H](CO)NC(=O)CSc1nonc1/C(=N/O)Nc1ccc(F)c(Br)c1 [Example 143, 2-({4-[N-(3-bromo-4-fluorophenyl)-N′-hydroxycarbamimidoyl]-1,2,5-oxadiazol-3-yl}sulfanyl)-N-[(1R,2R)-2-hydroxy-1-(hydroxymethyl)propyl]acetamide]",65.1 nM,53.9 nM,34.8 nM,
"CN1C(=O)NC[C@@H]1CSc1nonc1/C(=N/O)Nc1ccc(F)c(C#N)c1 [Example 150, N-(3-cyano-4-fluorophenyl)-N′-hydroxy-4-({[(4R)-3-methyl-2-oxoimidazolidin-4-yl]methyl}sulfanyl)-1,2,5-oxadiazole-3-carboximidamide]",422 nM,173 nM,820 nM,
"Cn1ccnc1CSc1nonc1C(=NO)Nc1ccc(F)c(Br)c1 [Example 153, N-(3-bromo-4-fluorophenyl)-N′-hydroxy-4-{[(1-methyl-1H-imidazol-2-yl)methyl]sulfanyl}-1,2,5-oxadiazole-3-carboximidamide]",65.7 nM,,69.4 nM,85.4 nM
"ON=C(Nc1ccc(F)c(Br)c1)c1nonc1SCCn1cncn1 [Example 154, N-(3-bromo-4-fluorophenyl)-N′-hydroxy-4-{[2-(1H-1,2,4-triazol-1-yl)ethyl]sulfanyl}-1,2,5-oxadiazole-3-carboximidamide]",26.1 nM,,41 nM,31.4 nM
"Cc1nc(CSc2nonc2C(=NO)Nc2ccc(F)c(Br)c2)no1 [Example 155, N-(3-bromo-4-fluorophenyl)-N′-hydroxy-4-{[(5-methyl-1,2,4-oxadiazol-3-yl)methyl]sulfanyl}-1,2,5-oxadiazole-3-carboximidamide]",218 nM,,301 nM,77.7 nM
"CC#CCSc1nonc1C(=NO)Nc1ccc(F)c(Br)c1 [Example 161, N-(3-bromo-4-fluorophenyl)-4-(but-2-yn-1-ylsulfanyl)-N′-hydroxy-1,2,5-oxadiazole-3-carboximidamide]",188 nM,,341 nM,169 nM
"ON=C(Nc1ccc(F)c(Br)c1)c1nonc1SCC1CCOCC1 [Example 162, N-(3-bromo-4-fluorophenyl)-N′-hydroxy-4-[(tetrahydro-2H-pyran-4-ylmethyl)sulfanyl]-1,2,5-oxadiazole-3-carboximidamide]",167 nM,,322 nM,111 nM
"ON=C(Nc1ccc(F)c(Br)c1)c1nonc1SCCN1CCNCC1 [Example 163, N-(3-bromo-4-fluorophenyl)-N′-hydroxy-4-[(2-piperazin-1-ylethyl)sulfanyl]-1,2,5-oxadiazole-3-carboximidamide]",181 nM,,405 nM,161 nM
"CN1CCN(CCSc2nonc2C(=NO)Nc2ccc(F)c(Br)c2)CC1 [Example 164, N-(3-bromo-4-fluorophenyl)-N′-hydroxy-4-{[2-(4-methvlpiperazin-1-yl)ethyl]sulfanyl}-1,2,5-oxadiazole-3-carboximidamide]",91.5 nM,62.2 nM,246 nM,
"OC[C@@H](O)CSc1nonc1/C(=N/O)Nc1ccc(F)c(C(F)(F)F)c1 [Example 165, 4-{[(2R)-2,3-dihydroxypropyl]sulfanyl}-N-[4-fluoro-3-(trifluoromethyl)phenyl]-N′-hydroxy-1,2,5-oxadiazole-3-carboximidamide]",130 nM,126 nM,159 nM,

# Other lines, results leading:
IC50 (IDO1 [1]),IC50 (IDO1 [2]; [4]),IC50 (IDO1 [3]),"IC50 (IDO1 [2]; IDO1 Enzyme Assay, IC50, nM)",Compound
149 nM,110 nM,169 nM,,"CCOC(=O)NC(=O)NCCSc1nonc1C(=NO)Nc1ccc(F)c(Br)c1 [Example 128, ethyl {[2-({4-[N-(3-bromo-4-fluorophenyl)-N′-hydroxycarbamimidoyl]-1,2,5-oxadiazol-3-yl}sulfanyl)ethyl]carbamoyl} carbamate]"
206 nM,37 nM,371 nM,,"O=C(NCCSc1nonc1C(=NO)Nc1ccc(F)c(Br)c1)NCC1CCOCC1 [Example 130, N-(3-bromo-4-fluorophenyl)-N′-hydroxy-4-[(2-{[(tetrahydro-2H-pyran-4-ylmethyl)carbamoyl]amino}ethyl)sulfanyl]-1,2,5-oxadiaxole-3-carboximidamide]"
66.7 nM,,167 nM,34.1 nM,"O=C(NCCSc1nonc1C(=NO)Nc1ccc(F)c(Br)c1)NCc1ccco1 [Example 131, N-(3-bromo-4-fluorophenyl)-4-[(2-{[(furan-2-ylmethyl)carbamoyl]amino}ethyl)sulfanyl]-N′-hydroxy-1,2,5-oxadiazole-3-carboximidamide]"
79.3 nM,,156 nM,96.3 nM,"Cc1nccn1CCSc1nonc1C(=NO)Nc1ccc(F)c(Br)c1 [Example 151, N-(3-bromo-4-fluorophenyl)-N′-hydroxy-4-{[2-(2-methyl-1H-imidazol-1-yl)ethyl]sulfanyl}-1,2,5-oxadiazole-3-carboximidamide]"
166 nM,,331 nM,97.6 nM,"ON=C(Nc1ccc(F)c(Br)c1)c1nonc1SCCc1cscn1 [Example 152, N-(3-bromo-4-fluorophenyl)-N′-hydroxy-4-{[2-(1,3-thiazol-4-yl)ethyl]sulfanyl}-1,2,5-oxadiazole-3-carboximidamide]"
46.9 nM,,114 nM,58.8 nM,"ON=C(Nc1ccc(F)c(Br)c1)c1nonc1SCc1ncon1 [Example 156, N-(3-bromo-4-fluorophenyl)-N′-hydroxy-4-[(1,2,4-oxadiazol-3-ylmethyl)sulfanyl]-1,2,5-oxadiazole-3-carboximidamide]"
104 nM,,113 nM,63.8 nM,"ON=C(Nc1ccc(F)c(Br)c1)c1nonc1SCc1nccs1 [Example 157, N-(3-bromo-4-fluorophenyl)-N′-hydroxy-4-[(1,3-thiazol-2-ylmethyl)sulfanyl]-1,2,5-oxadiazole-3-carboximidamide]"
72 nM,,233 nM,95.7 nM,"ON=C(Nc1ccc(F)c(Br)c1)c1nonc1SCC1CCCNC1 (stereo not drawn) [Example 158, N-(3-bromo-4-fluorophenyl)-N′-hydroxy-4-[(piperidin-3-ylmethyl)sulfanyl]-1,2,5-oxadiazole-3-carboximidamide]"
81.7 nM,,153 nM,105 nM,"ON=C(Nc1ccc(F)c(Br)c1)c1nonc1SCc1c[nH]cn1 [Example 159, N-(3-bromo-4-fluorophenyl)-N′-hydroxy-4-[(1H-imidazol-4-ylmethyl)sulfanyl]-1,2,5-oxadiazole-3-carboximidamide]"
61 nM,,126 nM,65.7 nM,"ON=C(Nc1ccc(F)c(Br)c1)c1nonc1SCCF [Example 160, N-(3-bromo-4-fluorophenyl)-4-[(2-fluoroethyl)sulfanyl]-N′-hydroxy-1,2,5-oxadiazole-3-carboximidamide]"
114 nM,126 nM,138 nM,,"OC[C@H](O)CSc1nonc1/C(=N/O)Nc1ccc(F)c(C(F)(F)F)c1 [Example 166, 4-{[(2S)-2,3-dihydroxypropyl]sulfanyl}-N-[4-fluoro-3-(trifluoromethyl)phenyl]-N′-hydroxy-1,2,5-oxadiazole-3-carboximidamide]"

# Reference: patent US10538497B2, “Compounds as indoleamine 2,3-dioxygenase inhibitors” (Merck Sharp & Dohme Corp., priority 2015, dated 2020)
